Assay results reported in US12534748B2, “Engineered beta-subunit of tryptophan synthase for production of non-canonical amino acids” (California Institute of Technology, priority 2015, dated 2026).
Substitutions are numbered along the chain they refer to. Where “and” joins values, the source holds several entries; their conditions need not be identical. Equal entries are not always repeated.

Key:
[1] = target: T1, Pyrococcus furiosus tryptophan synthase beta-subunit PfTrpB, wild type, SEQ ID NO: 2 (Pyrococcus furiosus, UniProt Q8U093); test: Tryptophan formation from L-serine and indole, kinetics of wild-type PfTrpB; assay type: biochemical; details: 75° C., pH 8.0, Trp formation at 290 nm
T1 sequence (Q8U093 with tags, fused parts or gaps): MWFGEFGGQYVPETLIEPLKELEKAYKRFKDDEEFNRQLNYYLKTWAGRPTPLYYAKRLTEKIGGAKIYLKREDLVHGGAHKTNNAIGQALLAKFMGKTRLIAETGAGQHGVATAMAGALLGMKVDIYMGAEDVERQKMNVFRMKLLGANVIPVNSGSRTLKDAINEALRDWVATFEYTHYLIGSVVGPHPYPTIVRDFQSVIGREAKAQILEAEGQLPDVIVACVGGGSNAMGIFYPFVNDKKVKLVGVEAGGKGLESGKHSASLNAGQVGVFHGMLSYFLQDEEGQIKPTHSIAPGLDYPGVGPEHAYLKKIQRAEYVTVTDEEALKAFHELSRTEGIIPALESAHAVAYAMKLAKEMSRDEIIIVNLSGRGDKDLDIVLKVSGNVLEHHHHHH
Method: (§1) Cloning, Expression, and Purification of PfTrpA and PfTrpB. The genes encoding PfTrpB (UNIPROT ID Q8U093) and PfTrpA (UNIPROT ID Q8U094) were obtained as gBlocks and cloned into pET22(b)+ for expression in E. coli BL21 E. cloni EXPRESS cells (Lucigen). Heterologous protein expression of PfTrpA and PfTrpB was performed in Terrific Broth with 100 μg/mL ampicillin (TBamp) and induced with 500 mM IPTG (final concentration 1 mM). PfTrpB was purified via a HisTrap HP column. PfTrpA was purified via a Q HP HiTrap column (flow-through), followed by ammonium sulfate precipitation, and hydrophobic interaction chromatography on a phenyl Sepharose HP HiTrap column (FIG. 3).
Kinetics and UV-Vis Spectroscopy. Data were collected between 550 and 250 nm on a UV1800 Shimadzu spectrophotometer (Shimadzu) using 0.25-20 μM of enzyme in 200 mM potassium phosphate (pH 8.0) in a quartz cuvette. Samples were incubated at 75° C. for >3 min to ensure a stable temperature was reached. PfTrpB activity (kcat) was measured by monitoring tryptophan formation at 290 nm using Δe290=1.89 mM^−1·cm^−1.
Selection of the Parent Enzyme, TrpB, from Pyrococcus furiosus. […]

[2] = target: T2, Pyrococcus furiosus TrpB variant PfTrpB^0B2 (P12L, E17G, I68V, T292S, F274S, T321A), SEQ ID NO: 12 (Pyrococcus furiosus, UniProt Q8U093, E17G/F274S/I68V/P12L/T292S/T321A); test: Tryptophan formation from L-serine and indole, kinetics of PfTrpB^0B2
T2 sequence (Q8U093 with tags, fused parts or gaps P12L/E17G/I68V/F274S/T292S/T321A): T1 sequence (Q8U093 with tags, fused parts or gaps) with P12L, E17G, I68V, F274S, T292S, T321A
Method: as §1
(§2) Kinetics and UV-Vis Spectroscopy.
PfTrpB^4D11 served as template for a final round of random mutagenesis, for which 1,144 clones were screened.

[3] = target: T3, Pyrococcus furiosus TrpB variant PfTrpB^2G9 (T292S), SEQ ID NO: 10 (Pyrococcus furiosus, UniProt Q8U093, T292S); test: Tryptophan formation from L-serine and indole, kinetics of PfTrpB^2G9; assay type: biochemical
T3 sequence (Q8U093 with tags, fused parts or gaps T292S): T1 sequence (Q8U093 with tags, fused parts or gaps) with T292S
Method: as §1, §2

In the case of `c1ccc2[nH]ccc2c1` [indole], the kcat [1] is reported as 0.31 s⁻¹ and 0.31 ± 0.02 s⁻¹, the kcat ([2]; 75° C.) is reported as 2.9 s⁻¹ and the kcat increase ([2]; relative to PfTrpB) is reported as 9.4 fold. For the same compound, the kcat ([3]; 75° C.) was 1.1 s⁻¹, the increase in kcat ([3]; compared with PfTrpB) was 3.5 fold and the Km ([3]; read-out: KM, indole, 75° C.) was 14 µM.
